Consider 25 compounds from US8912220B2 (priority 2009, dated 2014).

One assay deals with T1, human 5-HT6 (Homo sapiens, UniProt P50406).
T1 construct: expressed in transfected cells
The assay can be described thus: cAMP agonist and antagonist mode at 5-HT6 (HTRF, 1321N1 cells). The format is cell-based. The conditions noted are these: reference agonist, used in antagonist mode. The protocol: For assessment of 5-HT6 activity, 1321N1 cells stably expressing human 5-HT6 were grown to ˜90% confluence in a humidified atmosphere at 37° C. with 5% CO2 in F12 nutrient mixture (Ham) containing 10% dialyzed FBS, 400 µg/ml G418, 100 U/ml penicillin, and 100 µg/ml streptomycin. Medium was removed by aspiration, cells were washed 1× with PBS, and dissociated using PBS-EDTA for […] at room temperature. Cells were then diluted with PBS and pelleted by centrifugation for […] at 1000 rpm. Cells were suspended in assay buffer containing 3000 µM Ro-20-1724 (Sigma, St. Louis, Mo.), a phosphodiesterase inhibitor. Cells were seeded using a microplate dispenser at a density of 3,750 cells/well in a volume of 5 µl onto 384 well white wall/opaque bottom, small volume plates (Greiner Bio One, Monroe, N.C.).
Compound plates for cAMP assays were prepared at 8 mM in 100% DMSO and diluted in assay buffer to the appropriate test concentrations. The final in-well concentration of DMSO was 0.5%. Compounds were tested in duplicate wells using a range of twelve concentrations. […]
Homogeneous time-resolved fluorescence (HTRF) (cAMP dynamic 2 kit; Cisbio, Bedford, Mass.) was used to measure the formation of 3′,5′-cyclic adenosine monophosphate (cAMP) per the manufacturer's instructions. HTRF signal was measured at 620 and 665 nm using an EnVision Multilabel Plate Reader (PerkinElmer). […]
(TR-FRET usually uses a lanthanide donor and a delayed reading to cut background.)

Another assay has as its target human 5-HT2C(VSV) (Homo sapiens, UniProt P28335, I156V/I160V/N158S). Briefly: cell-based.

Chain of human 5-HT2C(VSV) (P28335 33-458 I156V/N158S/I160V limits assumed): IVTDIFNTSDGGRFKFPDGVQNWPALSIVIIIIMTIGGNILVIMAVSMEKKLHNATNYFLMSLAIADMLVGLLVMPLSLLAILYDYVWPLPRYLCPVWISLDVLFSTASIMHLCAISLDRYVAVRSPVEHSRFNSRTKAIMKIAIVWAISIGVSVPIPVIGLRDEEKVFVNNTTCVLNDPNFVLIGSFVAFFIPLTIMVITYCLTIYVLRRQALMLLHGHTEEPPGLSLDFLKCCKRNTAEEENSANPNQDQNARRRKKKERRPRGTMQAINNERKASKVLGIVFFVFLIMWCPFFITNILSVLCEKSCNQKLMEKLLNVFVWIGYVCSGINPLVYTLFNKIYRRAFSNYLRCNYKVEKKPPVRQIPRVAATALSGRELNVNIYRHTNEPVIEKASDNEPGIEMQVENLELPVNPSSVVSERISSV
T1 sequence (P50406 whole entry): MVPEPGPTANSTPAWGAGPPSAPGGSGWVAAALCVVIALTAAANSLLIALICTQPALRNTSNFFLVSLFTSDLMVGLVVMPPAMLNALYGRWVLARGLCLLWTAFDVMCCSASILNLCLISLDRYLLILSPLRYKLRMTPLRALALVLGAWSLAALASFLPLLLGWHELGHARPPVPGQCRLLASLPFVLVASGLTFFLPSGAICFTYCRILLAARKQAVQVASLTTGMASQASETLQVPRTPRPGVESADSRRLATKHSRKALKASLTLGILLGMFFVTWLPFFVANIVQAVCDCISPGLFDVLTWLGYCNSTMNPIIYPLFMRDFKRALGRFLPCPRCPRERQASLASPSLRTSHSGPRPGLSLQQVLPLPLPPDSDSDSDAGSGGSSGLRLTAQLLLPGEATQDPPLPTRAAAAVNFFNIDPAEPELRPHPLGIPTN

As for `NCCc1c[nH]c2ccc(O)cc12` [5-HT, 5-hydroxytryptamine], on human 5-HT6, the “EC80 of 5-HT” value is 15 nM.

`COc1c(F)ccc2c1c(CCN[C@H]1CCCc3ccccc31)cn2C` [17-16, (S)-N-(2-(5-fluoro-4-methoxy-1-methyl-1H-indol-3-yl)ethyl)-1,2,3,4-tetrahydronaphthalen-1-amine]: the EC50 on human 5-HT2C(VSV) lay in the range of 1 to 500 nM. Same read-out and setting: next, `COc1ccc(F)c2c1c(C(C)CN)cn2C` (stereo not shown) [9-5, 2-(7-fluoro-4-methoxy-1-methyl-1H-indol-3-yl)propan-1-amine]: 1 to 500 nM; `CCOc1c(F)ccc2c1c(CCNCCc1ccccc1)cn2C` [30-25, 2-(4-ethoxy-5-fluoro-1-methyl-1H-indol-3-yl)-N-phenethylethanamine]: 1 to 500 nM; `CCn1cc(CCN(C)CCc2cn(CC)c3cc(F)cc(OC)c23)c2c(OC)cc(F)cc21` [39-5, 2-(1-ethyl-6-fluoro-4-methoxy-1H-indol-3-yl)-N-(2-(1-ethyl-6-fluoro-4-methoxy-1H-indol-3-yl)ethyl)-N-methylethanamine]: 1 to 500 nM. Still for that read-out and setting: next, `CNCCc1cn(C)c2ccc(F)c(OCC(O)c3ccccc3Cl)c12` (stereo not shown) [33-37, 1-(2-chlorophenyl)-2-(5-fluoro-1-methyl-3-(2-(methylamino)ethyl)-1H-indol-4-yloxy)ethanol]: 1 to 500 nM; `CNCCc1cn(C)c2ccc(F)c(OCc3cccc(Cl)c3)c12` [33-8, 2-(4-(3-chlorobenzyloxy)-5-fluoro-1-methyl-1H-indol-3-yl)-N-methylethanamine]: 1 to 500 nM; `CNCCc1cn(C)c2ccc(F)c(OCc3ccc(Cl)cc3)c12` [33-20, 2-(4-(4-chlorobenzyloxy)-5-fluoro-1-methyl-1H-indol-3-yl)-N-methylethanamine]: 1 to 500 nM. `CCn1cc(CCN(C)C)c2c(OCc3ccc(F)cc3)cc(F)cc21` [1-14b, 2-(1-ethyl-6-fluoro-4-(4-fluorobenzyloxy)-1H-indol-3-yl)-N,N-dimethylethanamine] yielded an EC50 on human 5-HT2C(VSV) of 1 to 500 nM.

`NCCc1cn(CCOc2ccccc2)c2ccc(F)c(O)c12` [19-4, 3-(2-aminoethyl)-5-fluoro-1-(2-phenoxyethyl)-1H-indol-4-ol] displayed an EC50 at human 5-HT2C(VSV) of 1 to 500 nM. `CCn1cc(CCN(C)Cc2ccccc2)c2c(OCc3ccccc3)cc(F)cc21` [31-6, N-benzyl-2-(4-(benzyloxy)-1-ethyl-6-fluoro-1H-indol-3-yl)-N-methylethanamine] registered an EC50 on human 5-HT2C(VSV) of 1 to 500 nM. In turn, `CCOc1c(F)ccc2c1c(CCNCc1ccccc1Cl)cn2C` [30-17, N-(2-chlorobenzyl)-2-(4-ethoxy-5-fluoro-1-methyl-1H-indol-3-yl)ethanamine] had an EC50 on human 5-HT2C(VSV) of 1 to 500 nM. On the same count and under the same terms, next, `CNCCc1cn(C)c2ccc(F)c(OCc3cccc4cccnc34)c12` [33-13, 2-(5-fluoro-1-methyl-4-(quinolin-8-ylmethoxy)-1H-indol-3-yl)-N-methylethanamine]: 1 to 500 nM; `CCn1cc(CCN2CCCC2)c2c(O)cc(F)cc21` [11-6, 1-ethyl-6-fluoro-3-(2-(pyrrolidin-1-yl)ethyl)-1H-indol-4-ol]: 1 to 500 nM; `COc1cc(F)cc2c1c(CCN(C)C)cn2S(=O)(=O)c1ccccc1` [15-2, 2-(6-fluoro-4-methoxy-1-(phenylsulfonyl)-1H-indol-3-yl)-N,N-dimethylethan amine]: 500 to 10000 nM. Consider `COC(=O)/C=C/c1ccc(OC)c2c(CCN(C)C)cn(C)c12` [25-2, (E)-methyl 3-(3-(2-(dimethylamino)ethyl)-4-methoxy-1-methyl-1H-indol-7-yl)acrylate], for which the EC50 at human 5-HT2C(VSV) is 1 to 500 nM. On the same count and under the same terms, the result for `CNCCc1cn(C)c2ccc(F)c(OCCc3ccc(Cl)cc3)c12` [33-29, 2-(4-(4-chlorophenethoxy)-5-fluoro-1-methyl-1H-indol-3-yl)-N-methylethanamine] reads 1 to 500 nM; that for `CCN(CC)C(=O)Cn1cc(CCN)c2c(O)c(F)ccc21` [19-6, 2-(3-(2-aminoethyl)-5-fluoro-4-hydroxy-1H-indol-1-yl)-N,N-diethylacetamide], < 10000 nM. In turn, `CNCCc1cn(C)c2cc(F)cc(OCc3cccc(Cl)c3)c12` [33-46, 2-(4-(3-chlorobenzyloxy)-6-fluoro-1-methyl-1H-indol-3-yl)-N-methylethanamine] registered an EC50 on human 5-HT2C(VSV) of 1 to 500 nM. As for `COc1ccc(-c2ccco2)c2c1c(CCN(C)C)cn2C` [6-8, 2-(7-(furan-2-yl)-4-methoxy-1-methyl-1H-indol-3-yl)-N,N-dimethylethanamine], the EC50 on human 5-HT2C(VSV) was 500 to 10000 nM.

Compound `CCn1cc(CCNCCc2cccc(C(F)(F)F)c2)c2c(OCc3ccccc3)cc(F)cc21` [31-13, 2-(4-(benzyloxy)-1-ethyl-6-fluoro-1H-indol-3-yl)-N-(3-(trifluoromethyl)phenethyl)ethanamine] registered a half-maximal effective concentration (EC50) on human 5-HT2C(VSV) of 1 to 500 nM.

Compound `CNCCc1cn(C)c2ccc(F)c(OCc3cc(F)ccc3C)c12` [33-33, 2-(5-fluoro-4-(5-fluoro-2-methylbenzyloxy)-1-methyl-1H-indol-3-yl)-N-methylethanamine] gave an EC50 on human 5-HT2C(VSV) of 1 to 500 nM. Same read-out and setting: the result for `CNCCc1cn(C)c2c(F)cc(-c3ccccc3)c(OC)c12` [22-5, 2-(7-fluoro-4-methoxy-1-methyl-5-phenyl-1H-indol-3-yl)-N-methylethanamine] reads 1 to 500 nM; that for `COc1c(F)ccc2c1c(CCNC(CO)c1ccccc1)cn2C` (stereo not shown) [34-9, 2-(2-(5-fluoro-4-methoxy-1-methyl-1H-indol-3-yl)ethylamino)-2-phenylethanol], 1 to 500 nM. Take `CCCn1cc(CCNC)c2c(OCc3cccc4ccccc34)c(F)ccc21` [33-39, 2-(5-fluoro-4-(naphthalen-1-ylmethoxy)-1-propyl-1H-indol-3-yl)-N-methylethanamine]: the EC50 on human 5-HT2C(VSV) lay in the range of 1 to 500 nM.

Broadly, the EC50 is the midpoint of the concentration-response curve.
